Molecules are shown by their SMILES.

Consider eleven compounds from patent US20170129916A1, “NOVEL BETULINIC PROLINE IMIDAZOLE DERIVATIVES AS HIV INHIBITORS” (HETERO RESEARCH FOUNDATION, priority 2014, published 2017).

The nature of data set [1]: Single dose oral pharmacokinetic study. Format: in vivo. The settings on record: mouse, mice, 30 mg/kg, plasma; for AUC(0-t): read-out: Mice oral PK @30 mg/kg AUC 0-t; for Cmax: read-out: Mice oral PK @30 mg/kg Cmax. The gist of the method:
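Rats or mice received 30 mg/kg orally at 10 ml/kg dose volume. Retro-orbital blood was taken into K3 EDTA at defined intervals under light ether anesthesia and centrifuged to plasma. Plasma levels were measured by LC-MS-MS.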

The subject of data set [2] is HIV-1 strains, for e.g., 92HT599. Description: Antiviral activity: p24 estimation in MT-2 cells infected with HIV-1. Format: cell-based. The settings on record: Human immunodeficiency virus 1, MT2, MT-2 cells infected with HIV-1, p24, ~96 hours; for IC50: read-out: Antiviral activity IC50 (nM) Efficacy IC50. The procedure: MT-2 cells were infected with required number of TCID50's of HIV-1 strains, for e.g., 92HT599. The infected cells were plated at the concentration of 30, 000 cells per well in a 96 well plate. Test compound was added to the 96 well plate with the final concentration of DMSO (vehicle—not more than 1%). The plates are then incubated in a CO2 incubator for ˜96 hours (˜4 days) for viral infection. At the end of incubation period an aliquot from each well was taken for p24 estimation. The quantitation of p24 is an estimated index for antiviral activity of the compound. Percent inhibition was calculated with reference to control values (vehicle controls).
p-24 estimation was carried out using Advance biosciences kit as per the procedure detailed by supplier.

For the compound `C=C(C)[C@@H]1CC[C@]2(C(=O)N3CCC[C@H]3c3nc(-c4cccc(Cl)c4)c[nH]3)CC[C@]3(C)[C@H](CC[C@@H]4[C@@]5(C)CC[C@H](OC(=O)[C@H]6C[C@@H](C(=O)O)C6(C)C)C(C)(C)[C@@H]5CC[C@]43C)[C@@H]12` [Compound 28, (1R,3S)-3-((((1R,3aS,5aR,5bR,7aR,9S,11aR,11bR,13aR,13bR)-3a-((S)-2-(4-(3-chlorophenyl)-1H-imidazol-2-yl)pyrrolidine-1-carbonyl)-5a,5b,8,8,11a-pentamethyl-1-(prop-1-en-2-yl)icosahydro-1H-cyclopenta[a]chrysen-9-yl)oxy)carbonyl)-2,2-dimethylcyclobutane-1-carboxylic acid], in data set [1], the AUC(0-t) was 248 µg·h/mL and the Cmax was 10000 ng/mL. Further, in data set [2], the inhibition (in general, how much of the control response was suppressed) at 0.1 µM is 54%; the inhibition at 1 µM is 99%; the IC50 (as a rule, the concentration needed to halve the response being measured) was 19.4 nM.

Turning to `C=C(C)[C@@H]1CC[C@]2(C(=O)N3C[C@H](O)C[C@H]3c3nc(-c4ccccc4)c[nH]3)CC[C@]3(C)[C@H](CC[C@@H]4[C@@]5(C)CC[C@H](OC(=O)[C@H]6C[C@@H](C(=O)O)C6(C)C)C(C)(C)[C@@H]5CC[C@]43C)[C@@H]12` [Compound 29, (1R,3S)-3-((((1R,3aS,5aR,5bR,7aR,9S,11aR,11bR,13aR,13bR)-3a-((2S,4R)-4-hydroxy-2-(4-phenyl-1H-imidazol-2-yl)pyrrolidine-1-carbonyl)-5a,5b,8,8,11a-pentamethyl-1-(prop-1-en-2-yl)icosahydro-1H-cyclopenta[a]chrysen-9-yl)oxy)carbonyl)-2,2-dimethyl cyclobutane-1-carboxylic acid], in data set [1], the AUC(0-t) was found to be 57.5 µg·h/mL and the Cmax is 4500 ng/mL. For the same compound, in data set [2], the inhibition at 0.1 µM was 99%, the inhibition at 1 µM is 99% and the IC50 is 12.3 nM.

`C=C(C)[C@@H]1CC[C@]2(C(=O)N3C[C@H](OCCOC)C[C@H]3c3nc(C(C)(C)C)c[nH]3)CC[C@]3(C)[C@H](CC[C@@H]4[C@@]5(C)CC[C@H](OC(=O)[C@H]6C[C@@H](C(=O)O)C6(C)C)C(C)(C)[C@@H]5CC[C@]43C)[C@@H]12` [Compound 31, (1R,3S)-3-((((1R,3aS,5aR,5bR,7aR,9S,11aR,11bR,13aR,13bR)-3a-((2S,4R)-2-(4-(tert-butyl)-1H-imidazol-2-yl)-4-(2-methoxyethoxy)pyrrolidine-1-carbonyl)-5a,5b,8,8,11a-pentamethyl-1-(prop-1-en-2-yl)icosahydro-1H-cyclopenta[a]chrysen-9-yl)oxy)carbonyl)-2,2-dimethylcyclobutane-1-carboxylic acid]: in data set [1], the AUC(0-t) came out at 195 µg·h/mL and the Cmax is 9200 ng/mL. Also, in data set [2], the inhibition at 0.1 µM was 100%, the inhibition at 1 µM is 100% and the IC50 was 19.7 nM.

As to `C=C(C)[C@@H]1CC[C@]2(C(=O)N3C[C@H](OC)C[C@H]3c3nc(-c4ccccc4)c[nH]3)CC[C@]3(C)[C@H](CC[C@@H]4[C@@]5(C)CC[C@H](OC(=O)[C@H]6C[C@@H](C(=O)O)C6(C)C)C(C)(C)[C@@H]5CC[C@]43C)[C@@H]12` [Compound 32, (1R,3S)-3-((((1R,3aS,5aR,5bR,7aR,9S,11aR,11bR,13aR,13bR)-3a-((2S,4R)-4-methoxy-2-(4-phenyl-1H-imidazol-2-yl)pyrrolidine-1-carbonyl)-5a,5b,8,8,11a-pentamethyl-1-(prop-1-en-2-yl)icosahydro-1H-cyclopenta[a]chrysen-9-yl)oxy)carbonyl)-2,2-dimethylcyclobutane-1-carboxylic acid], in data set [1], the AUC(0-t) was 316 µg·h/mL and the Cmax was 13900 ng/mL. In addition, in data set [2], the inhibition at 0.1 µM was 60%, the inhibition at 1 µM is 99% and the IC50 was 23.3 nM.

For the compound `C=C(C)[C@@H]1CC[C@]2(C(=O)N3CCC[C@H]3c3ncc(C(F)(F)F)[nH]3)CC[C@]3(C)[C@H](CC[C@@H]4[C@@]5(C)CC[C@H](OC(=O)[C@H]6C[C@@H](C(=O)O)C6(C)C)C(C)(C)[C@@H]5CC[C@]43C)[C@@H]12` [Compound 34, (1R,3S)-2,2-dimethyl-3-((((1R,3aS,5aR,5b,7aR,9S,11aR,11bR,13aR,13bR)-5a,5b,8,8,11a-pentamethyl-1-(prop-1-en-2-yl)-3a-((S)-2-(5-(trifluoromethyl)-1H-imidazol-2-yl)pyrrolidine-1-carbonyl)icosahydro-1H-cyclopenta[a]chrysen-9-yl)oxy)carbonyl)cyclobutane-1-carboxylic acid], in data set [1], the AUC(0-t) amounted to 417 µg·h/mL and the Cmax stood at 18700 ng/mL. In data set [2], the inhibition at 0.1 µM was 86%, the inhibition at 1 µM is 100% and the IC50 is 6.66 nM.

`C=C(C)[C@@H]1CC[C@]2(C(=O)N3CCC[C@H]3c3nc(C)c(C)[nH]3)CC[C@]3(C)[C@H](CC[C@@H]4[C@@]5(C)CC[C@H](OC(=O)[C@H]6C[C@@H](C(=O)O)C6(C)C)C(C)(C)[C@@H]5CC[C@]43C)[C@@H]12` [Compound 35, (1R,3S)-3-((((1R,3aS,5aR,5bR,7aR,9S,11aR,11bR,13aR,13bR)-3a-((S)-2-(4,5-dimethyl-1H-imidazol-2-yl)pyrrolidine-1-carbonyl)-5a,5b,8,8,11a-pentamethyl-1-(prop-1-en-2-yl)icosahydro-1H-cyclopenta[a]chrysen-9-yl)oxy)carbonyl)-2,2-dimethylcyclobutane-1-carboxylic acid]: in data set [1], the AUC(0-t) was 250 µg·h/mL and the Cmax came to 14000 ng/mL. Also, in data set [2], the inhibition at 0.1 µM was 100%, the inhibition at 1 µM was 100% and the IC50 was 2.81 nM.

`C=C(C)[C@@H]1CC[C@]2(C(=O)N3CCC[C@H]3c3ncc[nH]3)CC[C@]3(C)[C@H](CC[C@@H]4[C@@]5(C)CC[C@H](OC(=O)[C@H]6C[C@@H](C(=O)O)C6(C)C)C(C)(C)[C@@H]5CC[C@]43C)[C@@H]12` [Compound 36, (1R,3S)-3-((((1R,3aS,5aR,5bR,7aR,9S,11aR,11bR,13aR,13bR)-3a-((S)-2-(1H-imidazol-2-yl)pyrrolidine-1-carbonyl)-5a,5b,8,8,11a-pentamethyl-1-(prop-1-en-2-yl)icosahydro-1H-cyclopenta[a]chrysen-9-yl)oxy)carbonyl)-2,2-dimethylcyclobutane-1-carboxylic acid]: in data set [1], the AUC(0-t) came out at 158 µg·h/mL and the Cmax came to 10800 ng/mL. Besides, in data set [2], the inhibition at 0.1 µM was 98%, the inhibition at 1 µM was 100% and the IC50 was 1.22 nM.

In the case of `C=C(C)[C@@H]1CC[C@]2(C(=O)N3CCC[C@H]3c3nc4ccccc4[nH]3)CC[C@]3(C)[C@H](CC[C@@H]4[C@@]5(C)CC[C@H](OC(=O)[C@H]6C[C@@H](C(=O)O)C6(C)C)C(C)(C)[C@@H]5CC[C@]43C)[C@@H]12` [Compound 37], in data set [1], the AUC(0-t) came to 487 µg·h/mL and the Cmax was 16800 ng/mL. Further, in data set [2], the inhibition at 0.1 µM is 99%, the inhibition at 1 µM is 99% and the IC50 was 3.21 nM.

On to `C=C(C)[C@@H]1CC[C@]2(C(=O)N3C[C@H](OCCOC)C[C@H]3c3nc(-c4ccccc4)c[nH]3)CC[C@]3(C)[C@H](CC[C@@H]4[C@@]5(C)CC[C@H](OC(=O)CC(C)(C)C(=O)O)C(C)(C)[C@@H]5CC[C@]43C)[C@@H]12` [Compound 43, 4-(((1R,3aS,5aR,5bR,7aR,9S,11aR,11bR,13aR,13bR)-3a-((2S,4R)-4-(2-methoxyethoxy)-2-(4-phenyl-1H-imidazol-2-yl)pyrrolidine-1-carbonyl)-5a,5b,8,8,11a-pentamethyl-1-(prop-1-en-2-yl)icosahydro-1H-cyclopenta[a]chrysen-9-yl)oxy)-2,2-dimethyl-4-oxobutanoic acid], for which, in data set [1], the AUC(0-t) stood at 333 µg·h/mL and the Cmax came to 15400 ng/mL. Further, the IC50 in data set [2] was 0.3 nM.

On to `C=C(C)[C@@H]1CC[C@]2(C(=O)N3C[C@H](OCCOC)C[C@H]3c3nc(-c4ccc(F)cc4)c[nH]3)CC[C@]3(C)[C@H](CC[C@@H]4[C@@]5(C)CC[C@H](OC(=O)CC(C)(C)C(=O)O)C(C)(C)[C@@H]5CC[C@]43C)[C@@H]12` [Compound 45, 4-(((1R,3aS,5aR,5bR,7aR,9S,11aR,11bR,13aR,13bR)-3a-((2S,4R)-2-(4-(4-fluorophenyl)-1H-imidazol-2-yl)-4-(2-methoxyethoxy)pyrrolidine-1-carbonyl)-5a,5b,8,8,11a-pentamethyl-1-(prop-1-en-2-yl)icosahydro-1H-cyclopenta[a]chrysen-9-yl)oxy)-2,2-dimethyl-4-oxo butanoic acid], for which, in data set [1], the AUC(0-t) worked out at 275 µg·h/mL and the Cmax worked out at 11500 ng/mL. Moreover, the IC50 in data set [2] was 0.3 nM.

Consider `C=C(C)[C@@H]1CC[C@]2(C(=O)N3CCC[C@H]3c3ncc(-c4ccc(OC)cc4)[nH]3)CC[C@]3(C)[C@H](CC[C@@H]4[C@@]5(C)CC[C@H](OC(=O)CC(C)(C)C(=O)O)C(C)(C)[C@@H]5CC[C@]43C)[C@@H]12` [Compound 46, 4-(((1R,3aS,5aR,5bR,7aR,9S,11aR,11bR,13aR,13bR)-3a-((S)-2-(5-(4-methoxyphenyl)-1H-imidazol-2-yl)pyrrolidine-1-carbonyl)-5a,5b,8,8,11a-pentamethyl-1-(prop-1-en-2-yl)icosahydro-1H-cyclopenta[a]chrysen-9-yl)oxy)-2,2-dimethyl-4-oxobutanoic acid], for which, in data set [1], the AUC(0-t) is 153 µg·h/mL and the Cmax is 8710 ng/mL. The IC50 in data set [2] was 11 nM.
